# Results published in patent US8119619B2, “Pregnane steroids and their use in the treatment of CNS disorders” (Umecrine AB, priority 2001, dated 2012).
# Several values for one entry are separate records, joined by “and”; a condition that tells them apart may be missing. Equal values may be shown once. Entries after “also recorded” stand apart in the source; their conditions may differ.
# Legend:
# [1] = tested on: GABA-A receptor; assay: Cortical tissue homogenate study: radioactive chloride uptake into vesicles through the GABA-A receptor; type: biochemical, rat; conditions: for Mean % (SEM) chloride uptake relative to only 10 uM GABA: 10 μM GABA alone = 100%, 3alpha-hydroxy-5alpha-pregnan-20-one 0-3000 nM + 10 μM GABA + 30 μM interacting steroid, reference steroid tested without blocker; for Within group change from 0 nM 3alpha-hydroxy-5alpha-pregnan-20-one: doses of 3alpha-hydroxy-5alpha-pregnan-20-one: 1=0, 2=50, 3=100, 4=150, 5=200, 6=1000, 7=3000 nM, + 10 μM GABA + 30 μM steroid
# Description: In these studies cortical tissue from mature male rats was homogenized in buffer. As a result of this procedure a suspension of small vesicles was formed, said vesicles having GABA-A receptors on their surface. When radioactive chloride is added to this suspension, a certain amount will enter the vesicles. This amount is related to how much open the GABA-A receptor is. Drugs that open the receptor will increase the amount of chloride in the vesicles in relation to the dosage of the drug. Similarly, drugs that close the GABA-A receptor will decrease the amount of chloride moving into the vesicles. The labeled chloride outside of the vesicles was washed away and separated from the chloride inside. The amount of radioactively labeled chloride inside the vesicles was thereafter measured in a fluid scintillator and a curve drawn.
# At each experiment, a control of increasing dosages of GABA was used to ensure that the tissue sample is working properly. A second control was used to enhance the effect of 10 μM of GABA by adding increasing dosages 3alpha-hydroxy-5alpha-pregnan-20-one.
# The effect is shown as a percentage change from the uptake with only 10 μM GABA and no 3 alpha-hydroxy-5alpha-pregnan-20-one in this case given the measure 100%.
# In all cases 3alpha-hydroxy-5alpha-pregnan-20-one is given in increasing dosages 1=0, 2=50, 3=100, 4=150, 5=200, 6=1000, 7=3000 nM+10 μM GABA+30 μM of interacting Steroid. H=high, S=significant, NS=non significant. Statistical testing made with repeated measures ANOVA followed post hoc with lest significant difference test.
# [2] = tested on: rats; assay: Morris water maze learning model; type: in vivo, rat; conditions: for Learning to find the hidden platform (latency), substance given alone: i.v. daily for 6 days, four trials per day, UC1011 20 mg/kg or 3alpha-hydroxy-5alpha-pregnan-20-one 2 mg/kg, UC1011 vs 3alpha group p<0.05 day 3-6
# Text: Animal studies using the Morris water-maze model have been performed. In the Morris water-maze model, the learning capacity of the test animals can be observed. The test animal, usually a rat, is placed in a container with water, having a platform at one location. This platform is slightly under the surface of the water, and the rat must swim until it finds the platform. In following test sessions the rat will learn were the platform is by looking at markings on the wall of the room. It is known, that the learning process is negatively influenced by the administration of CNS depressing 3alpha-hydroxy-pregnan-steroids. (Johansson L M, Birzniece V, Lindblad C., Olsson T. and Bäckström T (2002) Allopregnanolone inhibits learning in the Morris water maze. Brain Res 934, 125-131).
# The results (FIG. 3) indicate, that this negative effect is removed or alleviated through the administration of a compound according to the present invention. The experiments were conducted using 3alpha-hydroxy-pregnan-20-one as learning disturbing substance (CAS no. 516-54-1, Table 1) and 3beta,20beta-dihydroxy-5alpha-pregnane, UC1011, (CAS 516-53-9, Table 2 and 3) as blocking substance. Rats (n=46) where injected (i.v) daily with 3beta,20beta-dihydroxy-5alpha-pregnane, UC1011 20 mg/kg (n=14), 3alpha-hydroxy-5alpha-pregnan-20-one 2 mg/kg (n=14), 3alpha-hydroxy-5alpha-pregnan-20-one+3beta,20beta-dihydroxy-5alpha-pregnane, UC1011 2:20 mg/kg (n=14), or vehicle (n=4) Animals were given four swim trials daily with maximal swimming time 120 second for each trial. The rats started to swim 8 minute after the 3alpha-hydroxy-5alpha-pregnan-20-one injection for 6 days. The performance of rats was monitored with a video camera and data was analyzed with analysis of variance (ANOVA) followed by post hoc test.
Compound,Mean % (SEM) chloride uptake relative to only 10 uM GABA [1],Within group change from 0 nM 3alpha-hydroxy-5alpha-pregnan-20-one [1],"Latency to find the platform ([2]; 2 mg/kg i.v. daily, after 6 days with practice, max swimming time 120 second)","Learning to find the hidden platform (latency), substance given alone [2]","Learning to find the hidden platform (latency), substance given alone ([2]; listed as 3alpha-hydroxy-5alpha-preganane-20-one)","Effect on the increase in chloride uptake induced by 3alpha-hydroxy-5alpha-pregnan-20-one (FIG. 2) ([1]; 30 μM blocker, 10 μM GABA, increasing 3alpha-hydroxy-5alpha-pregnan-20-one)","Learning to find the hidden platform (latency), blocker given with 3alpha-hydroxy-5alpha-pregnan-20-one ([2]; 3alpha-hydroxy-5alpha-pregnan-20-one + UC1011 2:20 mg/kg i.v. daily for 6 days, compared with the 3alpha-hydroxy-5alpha-pregnan-20-one group, p<0.05 day 4-6, 20 mg/kg)"
"3beta-hydroxy-5alpha-pregnan-20-one-sulfate, sodium salt [UC1016]",109.8(19) %,All dosages = NS,–,–,–,–,–
"CC(=O)[C@H]1CC[C@H]2[C@@H]3CC[C@H]4C[C@H](O)CC[C@]4(C)[C@H]3CC[C@]12C [3alpha-hydroxy-5alpha-pregnan-20-one, reference compound]",167.7% and 167.7(13) %,"Dose 3, 5, 6, 7 = S",above 80 seconds,inhibits spatial learning,do not learn significantly within six days,–,–
"CC(=O)[C@H]1CC[C@H]2[C@@H]3CC[C@H]4C[C@@H](O)CC[C@]4(C)[C@H]3CC[C@]12C [UC1010, 3beta-hydroxy-5alpha-pregnan-20-one]",104.4(13) %,Dos 7 = S H; also recorded: The rest = NS,–,–,–,–,–
"CC(O)C1CCC2C3CCC4CC(O)CCC4(C)C3CCC12C (stereo not drawn) [UC1011, 3beta,20beta-dihydroxy-5alpha-pregnane]",81.9(19) %,All dosages = NS,–,learned to find the platform as quickly as the control group; also recorded: learn to find the platform on the tired day of training,–,blocked,lower latency time; also recorded: start to learn significantly on the 4th day of training
"C[C@H](O)[C@H]1CC[C@H]2[C@@H]3CC[C@@H]4C[C@@H](O)CC[C@]4(C)[C@H]3CC[C@]12C [UC1013, 3beta,20alpha-dihydroxy-5beta-pregnane]",84.2(22) %,All dosages = NS,–,–,–,–,–
"CC(=O)[C@H]1CC[C@H]2[C@@H]3CC[C@@H]4C[C@@H](O)CC[C@]4(C)[C@H]3CC[C@]12C [UC1014, 3beta-hydroxy-5beta-pregnan 20-one]",92.9(22) %,All dosages NS,–,–,–,–,–
"C[C@]12CC[C@H](O)C[C@H]1CC[C@@H]1[C@@H]2CC[C@]2(C)[C@@H](C(=O)CO)CC[C@@H]12 [UC1015, 3beta,21-dihydroxy-5beta-pregnan-20-one]",102.7(22) %,All dosages = NS,–,–,–,–,–
"CC(=O)[C@H]1CC[C@H]2[C@@H]3CC[C@H]4C[C@@H](O)CC[C@]4(C)[C@H]3C(=O)C[C@]12C [UC1017, 3beta hydroxy-5alpha-pregnan-11,20-dione]",–,All dosages = NS,–,–,–,–,–
"CC(=O)[C@H]1CC[C@H]2[C@@H]3CC=C4C[C@@H](OS(=O)(=O)[O-])CC[C@]4(C)[C@H]3CC[C@]12C.[Na+] [UC1018, 3beta-hydroxy-delta5-pregnen-20-one-sulfate, sodium salt]",64.7(23) %,All dosages = NS,–,–,–,–,–
